The results in this text go back to US7759337B2, “Phthalazine compounds and methods of use” (Amgen Inc., priority 2005, dated 2010).

Some results are limits rather than exact numbers.

The subject of this assay is production of TNF by monocytes activated with bacterial lipopolysaccharide (LPS). The experiment in a line: Lipopolysaccharide-activated monocyte TNF production assay. It is filed as cell-based. To be noted: Homo sapiens; whole blood monocyte assay (LPS induced TNF release). As to the method: Test compounds were evaluated in vitro for the ability to inhibit the production of TNF by monocytes activated with bacterial lipopolysaccharide (LPS). Fresh residual source leukocytes (a byproduct of plateletpheresis) were obtained from a local blood bank, and peripheral blood mononuclear cells (PBMCs) were isolated by density gradient centrifugation on Ficol-Paque Plus (Pharmacia). PBMCs were suspended at 2×10^6/mL in DMEM supplemented to contain 2% FCS, 10 mM, 0.3 mg/mL […], 100 U/mL penicillin G and […] streptomycin sulfate (complete media). Cells were plated into Falcon flat bottom, 96 well culture plates (200 μL/well) and cultured overnight at 37° C. and 6% CO2. Non-adherent cells were removed by washing with 200 μl/well of fresh medium.
Test compounds were dissolved in […]. Compound stock solutions were prepared to an initial concentration of […]. Stocks were diluted initially to 20-200 μM in complete media. Nine two-fold serial dilutions of each compound were then prepared in complete medium.
One hundred microliters of each test compound dilution were added to microtiter wells containing adherent monocytes and 100 μL complete medium. Monocytes were cultured with test compounds for 60 min at which time 25 μL of complete medium containing 30 ng/mL lipopolysaccharide from E. coli K532 were added to each well. Cells were cultured an additional 4 hrs. Culture supernatants were then removed and TNF presence in the supernatants was quantified using an ELISA.
Flat bottom, 96 well Corning High Binding ELISA plates were coated overnight (4° C.) with 150 μL/well of 3 μg/mL murine anti-human TNF-α MAb (R&D Systems #MAB210). Wells were then blocked for 1 h at room temperature with 200 μL/well of CaCl2-free ELISA buffer supplemented to contain 20 mg/mL BSA (standard ELISA buffer: […], 150 mM NaCl, 2 mM CaCl2, 0.15 mM thimerosal, pH 7.4). Plates were washed and replenished with 100 μL of test supernatants (diluted 1:3) or standards. Standards consisted of eleven 1.5-fold serial dilutions from a stock of I ng/mL recombinant human TNF (R&D Systems). Plates were incubated at room temperature for 1 h on orbital shaker (300 rpm), washed and replenished with 100 μL/well of 0.5 μg/mL goat anti-human TNF-α (R&D systems #AB-210-NA) biotinylated at a 4:1 ratio. Plates were incubated for 40 min, washed and replenished with 100 μL/well of alkaline phosphatase-conjugated streptavidin (Jackson ImmunoResearch #016-050-084) at 0.02 μg/mL. Plates were incubated 30 min, washed and replenished with 200 μL/well of 1 mg/mL of p-nitrophenyl phosphate. After 30 min, plates were read at 405 nm on a Vmax plate reader.
Standard curve data were fit to a second order polynomial and unknown TNF-α concentrations determined from their OD by solving this equation for concentration. TNF concentrations were then plotted vs. test compound concentration using a second order polynomial. This equation was then used to calculate the concentration of test compounds causing a 50% reduction in TNF production.
For `Fc1ccc(Oc2ccc3c(N4CCOCC4)nncc3c2)c(F)c1` [Example 356, 6-(2,4-difluorophenoxy)-1-morpholin-4-ylphthalazine], the IC50 was not above 5 µM.

Take `Fc1ccc(Oc2ccc3c(-c4ccsc4)nncc3c2)cc1` [Example 337, 6-(4-fluorophenoxy)-1-thien-3-ylphthalazine]: the IC50 was not above 5 µM.

With `Cc1ccc(C(=O)NC2CC2)cc1-c1ccc2c(N3CCNC[C@H]3C)nncc2c1` [Example 110, N-cyclopropyl-4-methyl-3-{1-[(2R)-2-methylpiperazin-1-yl]phthalazin-6-yl}benzamide], the IC50 is not above 5 µM.

In turn, `Cc1ccc(C(=O)NC2CC2)cc1-c1ccc2c(N3CCC[C@H]3CO)nncc2c1` [Example 151, N-cyclopropyl-3-{1-[(2S)-2-(hydroxymethyl)pyrrolidin-1-yl]phthalazin-6-yl}-4-methylbenzamide] returned an IC50 not above 5 µM.

As for `Cc1ccc(C(N)=O)cc1-c1ccc2c(-c3ccccc3Cl)nncc2c1` [Example 156, 3-[1-(2-chlorophenyl)phthalazin-6-yl]-4-methylbenzamide], the IC50 is not above 5 µM.

Take `Cc1ccc(C(=O)NC2CC2)cc1-c1ccc2c(NCCN(C)C)nncc2c1` [Example 183, N-cyclopropyl-3-(1-{[2-(dimethylamino)ethyl]amino}phthalazin-6-yl)-4-methylbenzamide]: the IC50 is not above 5 µM.

Regarding `Cc1cnc(C(=O)NC2CC2)cc1-c1ccc2c(N3C[C@@H](C)OC[C@H]3C)nncc2c1` [Example 113, N-cyclopropyl-4-{1-[(2R,5R)-2,5-dimethylmorpholin-4-yl]phthalazin-6-yl}-5-methylpyridine-2-carboxamide], the IC50 was not above 5 µM.

The compound `Cc1ccccc1-c1nncc2cc(-c3c(C)ccc4c(NC5CC5)noc34)ccc12` [Example 374, N-cyclopropyl-6-methyl-7-[1-(2-methylphenyl)phthalazin-6-yl]-1,2-benzisoxazol-3-amine] yielded an IC50 not above 5 µM.

Regarding `Cc1ccc(C(N)=O)cc1-c1ccc2c(NC3CCCC3)nncc2c1` [Example 323, 3-[1-(cyclopentylamino)phthalazin-6-yl]-4-methylbenzamide], the IC50 is not above 5 µM.

In the case of `Cc1ccc(C(N)=O)cc1-c1ccc2c(OC3CCCCC3)nncc2c1` [Example 311, 3-[1-(cyclohexyloxy)phthalazin-6-yl]-4-methylbenzamide], the IC50 was not above 5 µM.

`Cc1ccc(C(=O)NC2CC2)cc1-c1ccc2c(N3CCCC3C)nncc2c1` (stereo not drawn) [Example 105, N-cyclopropyl-4-methyl-3-(1-(2-methylpyrrolidin-1-yl)phthalazin-6-yl)benzamide]: the 50% inhibitory concentration (IC50) was not above 5 µM.

For the compound `Cc1ccc(S(N)(=O)=O)cc1-c1ccc2c(NC(C)C)nncc2c1` [Example 357, 3-[1-(isopropylamino)phthalazin-6-yl]-4-methylbenzenesulfonamide], the IC50 was not above 5 µM.

For the compound `Fc1ccc(Oc2ccc3c(-c4cn[nH]c4)nncc3c2)cc1` [Example 344, 6-(4-fluorophenoxy)-1-(1H-pyrazol-4-yl)phthalazine], the IC50 was not above 5 µM.

`Cc1cc(S(N)(=O)=O)ccc1-c1nncc2cc(Oc3ccc(F)cc3)ccc12` [Example 364, 4-[6-(4-fluorophenoxy)phthalazin-1-yl]-3-methylbenzenesulfonamide]: the half-maximal inhibitory concentration (IC50) was not above 5 µM.

`Cc1ccc(C(=O)NC2CC2)cc1-c1ccc2c(N3CCC(C)(O)CC3)nncc2c1` [Example 152, N-cyclopropyl-3-[1-(4-hydroxy-4-methylpiperidin-1-yl)phthalazin-6-yl]-4-methylbenzamide] showed an IC50 not above 5 µM.

On to `Cc1ccc(C(N)=O)cc1-c1ccc2c(N(C)C3CCCCC3)nncc2c1` [Example 291, 3-{1-[cyclohexyl(methyl)amino]phthalazin-6-yl}-4-methylbenzamide], for which the IC50 is not above 5 µM.

The compound `Cc1ccc(C(=O)NC2CC2)cc1-c1ccc2c(N3C[C@@H](C)N(CC(F)(F)F)C[C@@H]3C)nncc2c1` [Example 393, N-cyclopropyl-3-{1-[(2S,5R)-2,5-dimethyl-4-(2,2,2-trifluoroethyl)piperazin-1-yl]phthalazin-6-yl}-4-methylbenzamide] had an IC50 not above 5 µM.

In turn, `Cc1ccc(C(=O)NC2CC2)cc1-c1ccc2c(-c3ccc(-c4ccc(Cl)cc4)cc3)nncc2c1` [Example 208, 3-[1-(4′-chloro-1,1′-biphenyl-4-yl)phthalazin-6-yl]-N-cyclopropyl-4-methylbenzamide] displayed an IC50 not above 5 µM.

The compound `Cc1ccc(C(=O)NC2CC2)cc1-c1ccc2c(N3CCc4c(O)n[nH]c4C3)nncc2c1` [Example 103, N-cyclopropyl-3-(1-(3-hydroxy-4,5-dihydro-1H-pyrazolo[3,4-c]pyridin-6(7H)-yl)phthalazin-6-yl)-4-methylbenzamide] had an IC50 not above 5 µM.

`CC(=O)c1nnc(C)c2cc(-c3cc(C(=O)NC4CC4)ccc3C)ccc12` [Example 84, 3-(1-Acetyl-4-methylphthalazin-6-yl)-N-cyclopropyl-4-methylbenzamide]: the IC50 is not above 5 µM.

The compound `CCOC(=O)c1ccc(C)c(-c2ccc3c(C(C)C)nncc3c2)c1` [Example 362, ethyl 3-(1-isopropylphthalazin-6-yl)-4-methylbenzoate] came in with an IC50 not above 5 µM.

`CC[C@@H]1CCCCN1c1nncc2cc(-c3cc(C(=O)NC4CC4)ccc3C)ccc12` [Example 130, N-cyclopropyl-3-{1-[(2R)-2-ethylpiperidin-1-yl]phthalazin-6-yl}-4-methylbenzamide]: the IC50 is not above 5 µM.

For the compound `COC(=O)c1ccccc1Oc1ccc2c(-c3ccccc3C)nncc2c1` [Example 342, methyl 2-{[1-(2-methylphenyl)phthalazin-6-yl]oxy}benzoate], the IC50 was not above 5 µM.

The compound `Cc1ccc2c(N)n[nH]c2c1-c1ccc2c(N3CCOC[C@@H]3C)nncc2c1` [Example 391, 6-methyl-7-{1-[(3S)-3-methylmorpholin-4-yl]phthalazin-6-yl}-1H-indazol-3-amine] returned an IC50 not above 5 µM.

For `Cc1cc(F)ccc1-c1nncc2cc(-c3ccc(Cl)c4c(NC5CC5)noc34)ccc12` [Example 382, 4-chloro-N-cyclopropyl-7-[1-(4-fluoro-2-methylphenyl)phthalazin-6-yl]-1,2-benzisoxazol-3-amine], the half-maximal inhibitory concentration (IC50) was not above 5 µM.

Compound `Cc1ccc(C(N)=O)cc1-c1ccc2c(OC(C)C)nncc2c1` [Example 155, 3-(1-isopropoxyphthalazin-6-yl)-4-methylbenzamide] yielded an IC50 not above 5 µM.

In turn, `Cc1ccc(C(=O)NC2CC2)cc1-c1ccc2c(-c3ccc(C(F)(F)F)cc3)nncc2c1` [Example 249, N-cyclopropyl-4-methyl-3-{1-[4-(trifluoromethyl)phenyl]phthalazin-6-yl}benzamide] came in with an IC50 not above 5 µM.

On to `Cc1ccc(C(N)=O)cc1-c1ccc2c(-c3cccnc3C)nncc2c1` [Example 255, 4-methyl-3-[1-(2-methylpyridin-3-yl)phthalazin-6-yl]benzamide], for which the IC50 is not above 5 µM.

In turn, `Cc1ccc(C(=O)NC2CC2)cc1-c1ccc2c(N3CCC[C@@H](C(N)=O)C3)nncc2c1` [Example 132, (3R)-1-(6-{5-[(cyclopropylamino)carbonyl]-2-methylphenyl}phthalazin-1-yl)piperidine-3-carboxamide] displayed an IC50 not above 5 µM.

For the compound `COc1ncc(-c2nncc3cc(-c4cc(C(N)=O)ccc4C)ccc23)c(OC)n1` [Example 225, 3-[1-(2,4-dimethoxypyrimidin-5-yl)phthalazin-6-yl]-4-methylbenzamide], the half-inhibitory concentration (IC50) is not above 5 µM.

Turning to `NC(=O)c1ccc(Cl)c(-c2ccc3c(N4CCOCC4)nncc3c2)c1` [Example 73, 4-Chloro-3-(1-morpholin-4-ylphthalazin-6-yl)benzamide], the IC50 was not above 5 µM.

As for `Cc1ccc(C(=O)NC2CC2)cc1-c1ccc2c(NC(C)c3ccccn3)nncc2c1` (stereo not drawn) [Example 369, N-cyclopropyl-4-methyl-3-{1-[(1-pyridin-2-ylethyl)amino]phthalazin-6-yl}benzamide], the half-inhibitory concentration (IC50) is not above 5 µM.

Consider `CONC(=O)c1ccc(C)c(-c2ccc3c(N4CCOCC4)nncc3c2)c1` [Example 278, N-methoxy-4-methyl-3-(1-morpholin-4-ylphthalazin-6-yl)benzamide], for which the IC50 is not above 5 µM.

A word on the IC50: it is the point on the concentration scale where inhibition reaches its midpoint. Lower therefore signals higher potency.
